Results as given in patent US7772183B2 (Bristol-Myers Squibb Company, priority 2005, dated 2010).
Read-outs that look alike come from different tables or passages of the source.

Columns and labels:
[1] = tested on: HCV replicon in HUH-7 cells; assay: HCV replicon FRET assay; type: cell-based, Hepatitis C virus (strain 1b); conditions: Hepatitis C virus
In short: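 HUH-7 cells stably carrying a genotype 1b subgenomic HCV replicon (NS3–NS5B) treated with compound for 4 days at 37° C, 0.5% DMSO final. Cytotoxicity (CC50) read by alamar Blue; cells then lysed with 10 μM FRET HCV protease peptide substrate and kinetically read (340/490 nm) for EC50.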

CC(C)(C)OC(=O)N[C@H]1CCCCC/C=C\[C@@H]2C[C@@]2(C(=O)NS(=O)(=O)C2CC2)NC(=O)[C@@H]2C[C@@H](OC(=O)c3ccc(C#N)cc3)CN2C1=O [Compound 26, 18-(4-cyanobenzoyloxy)-14-tert-butoxycarbonylamino-4-cyclopropylsulfonylaminocarbonyl-2,15-dioxo-3,16-diazatricyclo-[14.3.0.0^4,6]-nonadec-7-ene]
melting point: 164 to 166 °C | EC50 ([1]; 96 h, HUH-7 replicon cells, 4 days, read-out: EC50 in the replicon FRET assay): 7.3 nM | EC50 ([1]; Huh-7, HCV replicon, for compounds tested, read-out: EC50 Range): < 100 nM
